Reference: patent publication US11807625B2, “Capsid inhibitors for the prevention of HIV” (Gilead Sciences, Inc., priority 2019, dated 2023)
Read-outs that look alike come from different tables or passages of the source.

Assay: PK of compound of Formula (Ia) after single subcutaneous dose of solution formulations in beagle dogs
Format: in vivo
Description: Formulations containing the compound of Formula (Ia), or a pharmaceutically acceptable salt thereof, were prepared as solutions and optionally administered subcutaneously or intramuscularly to rats, rabbits, and/or dogs.
(§1) A solution of about 400 mg/mL of the compound of Formula (Ia) having 17.00 w/w % water, 36.40 w/w % PEG 300, 35.20 w/w % of a sodium salt of a compound of Formula (Ia), 5.00 w/w % ethanol, and 6.40 w/w % poloxamer 188 was prepared. The solution was administered subcutaneously to male beagle dogs at a dose level of about 12 mg/kg and male Wistar Han rats at a dose level of about 50 mg/kg. The pharmacokinetic profiles were determined, and the results for dogs are summarized in Table and Table, while the results for rats are summarized in Table and Table below.
as §1, with “500” for “400”, “14.06” for “17.00”, “30.12” for “36.40”
A solution of about 300 mg/mL of the compound of Formula (Ia) having 23.33 w/w % water, 48.99 w/w % PEG 300, 26.47 w/w % of a sodium salt of a compound of Formula (Ia), and 1.21 w/w % poloxamer 188 was prepared. The solution was administered subcutaneously to male beagle dogs at a dose level of about 6 mg/kg and male Wistar Han rats at a dose level of about 50 mg/kg. The pharmacokinetic profiles were determined, and the results for dogs are summarized in Table and Table, while the results for rats are summarized in Table and Table below.
as §1, with “18.80” for “17.00”, “40.25” for “36.40”, “34.38” for “35.20”, “1.57” for “6.40”
as §1, with “500” for “400”, “16.29” for “17.00”, “34.88” for “36.40”, “41.92” for “35.20”, “1.91” for “6.40”
as §1, with “20.90” for “17.00”, “44.72” for “36.40”, “and 34.38” for “35.20”, “(Ia)” for “(Ia), 5.00 w/w % ethanol, and 6.40 w/w % poloxamer 188”
A solution of about 400 mg/mL of the compound of Formula (Ia) having 19.90 w/w % water, 42.59 w/w % PEG 300, 34.38 w/w % of a sodium salt of a compound of Formula (Ia), and 3.13 w/w % poloxamer 188 was prepared. The solution was administered subcutaneously to male beagle dogs at a dose level of about 12 mg/kg and male Wistar Han rats at a dose level of about 50 mg/kg. […]

[1] = male, beagle, dog, plasma, sc, 6 mg/kg, individual dogs, SC 6 mg/kg, solution V, 300 mg/mL
[2] = male, beagle, dog, plasma, sc, 6 mg/kg, mean, n = 3 dogs, SC 6 mg/kg, solution V, 300 mg/mL
[3] = male, beagle, dog, plasma, sc, 6 mg/kg, mean ± SD, n = 3 dogs, SC 6 mg/kg, solution V, 300 mg/mL

## CC(C)(C#Cc1ccc(-c2ccc(Cl)c3c(NS(C)(=O)=O)nn(CC(F)(F)F)c23)c([C@H](Cc2cc(F)cc(F)c2)NC(=O)Cn2nc(C(F)(F)F)c3c2C(F)(F)[C@@H]2C[C@H]32)n1)S(C)(=O)=O [compound of Formula (Ia)]
Beagle dogs, SC 12 mg/kg, 400 mg/mL solution W (5.00% ethanol, 1.57% poloxamer 188), 1.00 h, animals #1-#3
  Plasma concentration: BLQ
[1]
  concentration at 3 h: 2.26 nM
  concentration at 8 h: 8.26 nM
  concentration at 24 h: 22.3 nM
  concentration at 48 h: 37.1 nM
  concentration at 72 h: 32.8 nM
  concentration at 96 h: 39.5 nM
  concentration at 168 h: 41.8 nM
  concentration at 336 h: 99.2 nM
  concentration at 504 h: 122 nM
  concentration at 672 h: 95.3 nM
  concentration at 840 h: 53.3 nM
  concentration at 1008 h: 29.1 nM
  concentration at 1344 h: 26.9 nM
  concentration at 1680 h: 13.7 nM
  concentration at 2352 h: 4.5 nM
  concentration at 2688 h: 2.1 nM
  concentration at 3024 h: 2.5 nM
  concentration at 3360 h: 1.5 nM
male, beagle, dog, plasma, sc, 6 mg/kg, mean (dog #2 BLQ), SC 6 mg/kg, solution V, 300 mg/mL
  concentration at 3 h: 2.75 nM
[2]
  concentration at 8 h: 10.4 nM
  concentration at 24 h: 23.5 nM
  concentration at 48 h: 31.5 nM
  concentration at 72 h: 31.3 nM
  concentration at 96 h: 32.6 nM
  concentration at 168 h: 39.2 nM
  concentration at 336 h: 129 nM
  concentration at 504 h: 151 nM
  concentration at 672 h: 122 nM
  concentration at 840 h: 58.9 nM
  concentration at 1008 h: 30.2 nM
  concentration at 1344 h: 23.8 nM
  concentration at 1680 h: 12.3 nM
  concentration at 2352 h: 4.7 nM
  concentration at 2688 h: 2.7 nM
  concentration at 3024 h: 2.3 nM
  concentration at 3360 h: 1.3 nM
male, beagle, dog, plasma, sc, 6 mg/kg, 2016 h, mean, n = 3 dogs, SC 6 mg/kg, solution V, 300 mg/mL
  concentration at 2016 h: 8.5 nM
[3]
  AUC(0-inf): 113 ± 12 µM·h
  Cmax: 155 ± 30 nM
  Tmax: 18.7 ± 4.04 days
  half-life: 25.5 days
male, beagle, dog, plasma, sc, 6 mg/kg, mean ± SD, n = 3 dogs, SC 6 mg/kg, solution V, 300 mg/mL, read-out: AUC0-24 h
  AUC(0-t): 0.304 ± 0.028 µM·h
male, beagle, dog, plasma, sc, 6 mg/kg, mean ± SD, n = 3 dogs, SC 6 mg/kg, solution V, 300 mg/mL, read-out: AUC0-168 h
  AUC(0-t): 5.07 ± 0.5 µM·h
male, beagle, dog, plasma, sc, 6 mg/kg, mean ± SD, n = 3 dogs, SC 6 mg/kg, solution V, 300 mg/mL, read-out: AUC0-672 h
  AUC(0-t): 65.6 ± 9.9 µM·h
male, beagle, dog, plasma, sc, 6 mg/kg, mean ± SD, n = 3 dogs, SC 6 mg/kg, solution V, 300 mg/mL, read-out: AUC0-1344 h
  AUC(0-t): 97.4 ± 12.7 µM·h
male, beagle, dog, plasma, sc, 6 mg/kg, mean ± SD, n = 3 dogs, SC 6 mg/kg, solution V, 300 mg/mL, read-out: AUC0-1680 h
  AUC(0-t): 103 ± 12 µM·h
